These molecules were tested on Meloidogyne incognita (assay: Meloidogyne incognita test (sand, lettuce, gall formation)). Details: Meloidogyne incognita, 336 h, 20 ppm, after 14 days; read-out: nematicidal efficacy (formation of galls).
Assay type: in vivo
Method in brief: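 Vessels held sand, diluted compound solution, M. incognita egg/larvae suspension and lettuce seeds, and the plants grew for 14 days. Efficacy in % came from root gall formation: 100% means no galls, 0% means galls equal to the untreated control.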

| Compound | pest or weed control at 20 ppm [%] |
| --- | --- |
| Cc1nc(C(=O)NS(=O)(=O)C(C)C)cn1-c1ccccc1Cl [I-006] | 100 |
| COc1ccc(S(=O)(=O)NC(=O)c2ncn(CCC(F)(F)F)c2Br)cc1 [I-010] | 90 |
| CCCn1cnc(C(=O)NS(=O)(=O)c2ccc(Cl)cc2)c1Cl [I-042] | 100 |
| CC(C)S(=O)(=O)NC(=O)c1cn(C)c(Cc2cccc(Cl)c2)n1 [I-120] | 100 |
| O=C(NS(=O)(=O)c1ccc(Cl)cc1)c1cn(Cc2ccccc2Cl)cn1 [I-158] | 100 |
| O=C(NS(=O)(=O)c1ccccc1)c1cn(-c2ccccc2OC(F)(F)F)cn1 [I-214] | 90 |
| O=C(NS(=O)(=O)c1c(Cl)cccc1Cl)c1cn(-c2ccccc2F)cn1 [I-220] | 100 |
| COc1ccc(Cl)c(S(=O)(=O)NC(=O)c2cn(-c3cc(Cl)c(Br)c(Cl)c3)cn2)c1 [I-314] | 90 |
| O=C(NS(=O)(=O)c1cc(Cn2cccn2)ccc1Cl)c1cn(-c2cc(Cl)cc(C(F)(F)F)c2)cn1 [I-346] | 70 |
| Cc1nc(C(=O)NS(=O)(=O)c2c(F)cccc2NC(C)C)cn1-c1cc(F)cc(F)c1 [I-385] | 100 |
| COc1ccc(Cl)c(S(=O)(=O)NC(=O)c2cn(-c3cc(Cl)cc(C(F)(F)F)c3)c(C(C)C)n2)c1 [I-401] | 70 |
| COc1ccccc1S(=O)(=O)NC(=O)c1ncn(-c2cccc(C(F)(F)F)c2)c1Cl [I-435] | 100 |
| COc1cccc(S(=O)(=O)NC(=O)c2ncn(-c3cccc(C(F)(F)F)c3)c2Cl)c1 [I-436] | 100 |
| COc1ccc(S(=O)(=O)NC(=O)c2ncn(-c3cccc(C(F)(F)F)c3)c2Cl)cc1 [I-437] | 90 |
| COc1ccc(Cl)c(S(=O)(=O)NC(=O)c2cn(-c3cc(Cl)nc(Cl)c3)c(Cl)n2)c1 [I-439] | 90 |
| O=C(NS(=O)(=O)c1ccccc1Cl)c1nc(Br)n(CCC(F)(F)F)c1Cl [I-440] | 100 |
| COc1ccc(Cl)c(S(=O)(=O)NC(=O)c2cn(-c3cc(Cl)cc(Cl)c3)c(Br)n2)c1 [I-441] | 100 |
| COc1ccc(Cl)c(S(=O)(=O)NC(=O)c2nc(Br)n(-c3cc(Cl)cc(Cl)c3)c2Br)c1 [I-442] | 100 |
| COc1ccc(Cl)c(S(=O)(=O)NC(=O)c2cn(-c3cc(Cl)cc(Cl)c3)c(Cl)n2)c1 [I-443] | 100 |
| O=C(NS(=O)(=O)c1ccccc1Cl)c1cn(-c2cc(Cl)cc(Cl)c2)c(Cl)n1 [I-444] | 100 |
| CSc1nc(C(=O)NS(=O)(=O)c2ccccc2Cl)cn1CCC(F)(F)F [I-445] | 90 |

| Compound | pest or weed control at 20 ppm [%] |
| --- | --- |
| CSc1nc(C(=O)NS(=O)(=O)c2ccccc2Cl)c(Cl)n1CCC(F)(F)F [I-446] | 90 |
| O=C(NS(=O)(=O)c1ccccc1Cl)c1cc(-c2cc(Cl)cc(Cl)c2)n(CC(F)(F)F)n1 [I-447] | 90 |
| COc1ccc(Cl)c(S(=O)(=O)NC(=O)c2cc(-c3cc(Cl)cc(Cl)c3)n(CC(F)(F)F)n2)c1 [I-448] | 100 |
| CCOc1ccc(Cl)c(S(=O)(=O)NC(=O)c2nc(Cl)n(CCC(F)(F)F)c2Cl)c1 [I-449] | 100 |
| CC(C)Oc1ccc(Cl)c(S(=O)(=O)NC(=O)c2nc(Cl)n(CCC(F)(F)F)c2Cl)c1 [I-450] | 100 |
| O=C(NS(=O)(=O)c1c(Cl)cccc1Cl)c1nc(Cl)n(CCC(F)(F)F)c1Cl [I-451] | 90 |
| Cc1ccccc1S(=O)(=O)NC(=O)c1nc(Cl)n(CCC(F)(F)F)c1Cl [I-452] | 100 |
| CSc1cccc(Cl)c1S(=O)(=O)NC(=O)c1nc(Cl)n(CCC(F)(F)F)c1Cl [I-453] | 100 |
| COc1ccc(Cl)cc1S(=O)(=O)NC(=O)c1nc(Cl)n(CCC(F)(F)F)c1Cl [I-454] | 100 |
| COc1ccc(Br)c(S(=O)(=O)NC(=O)c2nc(Cl)n(CCC(F)(F)F)c2Cl)c1 [I-455] | 100 |
| COc1ccc(F)c(S(=O)(=O)NC(=O)c2nc(Cl)n(CCC(F)(F)F)c2Cl)c1 [I-457] | 100 |
| O=C(NS(=O)(=O)c1cc(C(F)(F)F)ccc1Cl)c1nc(Cl)n(CCC(F)(F)F)c1Cl [I-458] | 100 |
| CCOc1ccc(Cl)c(S(=O)(=O)NC(=O)c2nc(Cl)n(C3CC3C(F)(F)F)c2Cl)c1 (stereo not drawn) [I-459] | 100 |
| O=C(NS(=O)(=O)c1c(Cl)cccc1Cl)c1nc(Cl)n(C2CC2C(F)(F)F)c1Cl (stereo not drawn) [I-461] | 100 |
| Cc1ccccc1S(=O)(=O)NC(=O)c1nc(Cl)n(C2CC2C(F)(F)F)c1Cl (stereo not drawn) [I-462] | 100 |
| CSc1cccc(Cl)c1S(=O)(=O)NC(=O)c1nc(Cl)n(C2CC2C(F)(F)F)c1Cl (stereo not drawn) [I-463] | 100 |
| COc1ccc(Cl)cc1S(=O)(=O)NC(=O)c1nc(Cl)n(C2CC2C(F)(F)F)c1Cl (stereo not drawn) [I-464] | 90 |
| COc1ccc(Br)c(S(=O)(=O)NC(=O)c2nc(Cl)n(C3CC3C(F)(F)F)c2Cl)c1 (stereo not drawn) [I-465] | 100 |
| CCc1ccc(C)c(S(=O)(=O)NC(=O)c2nc(Cl)n(C3CC3C(F)(F)F)c2Cl)c1 (stereo not drawn) [I-466] | 100 |
| COc1ccc(F)c(S(=O)(=O)NC(=O)c2nc(Cl)n(C3CC3C(F)(F)F)c2Cl)c1 (stereo not drawn) [I-467] | 100 |
| O=C(NS(=O)(=O)c1cc(C(F)(F)F)ccc1Cl)c1nc(Cl)n(C2CC2C(F)(F)F)c1Cl (stereo not drawn) [I-468] | 100 |

| Compound | pest or weed control at 20 ppm [%] |
| --- | --- |
| O=C(NS(=O)(=O)c1ccccc1Cl)c1nc(Cl)n(C2CC2C(F)(F)F)c1Cl (stereo not drawn) [I-469] | 100 |
| CC(C)S(=O)(=O)NC(=O)c1cn(C)c(C(F)(F)F)n1 [I-471] | 90 |
| Cn1cc(C(=O)NS(=O)(=O)c2ccccc2Cl)nc1C(F)(F)F [I-472] | 90 |
| Cn1cc(C(=O)NS(=O)(=O)c2ccccc2Br)nc1C(F)(F)F [I-473] | 90 |
| Cc1ccccc1S(=O)(=O)NC(=O)c1cn(C)c(C(F)(F)F)n1 [I-474] | 100 |
| COc1ccc(Cl)c(S(=O)(=O)NC(=O)c2cn(C)c(C(F)(F)F)n2)c1 [I-475] | 90 |
| CC(C)Sc1nc(C(=O)NS(=O)(=O)c2ccccc2Cl)cn1C [I-476] | 70 |
| Cc1ccccc1S(=O)(=O)NC(=O)c1cn(C)c(SC(C)C)n1 [I-477] | 90 |
| COc1ccccc1S(=O)(=O)NC(=O)c1cn(C)c(SC(C)C)n1 [I-478] | 70 |
| COc1ccc(Cl)c(S(=O)(=O)NC(=O)c2ncn(-c3ccccc3Cl)c2C(F)F)c1 [I-479] | 90 |
| COc1ccc(Cl)c(S(=O)(=O)NC(=O)c2ncn(-c3cccc(Cl)c3)c2C(F)F)c1 [I-480] | 90 |
| COc1ccc(Cl)c(S(=O)(=O)NC(=O)c2ncn(-c3ccc(Cl)cc3)c2C(F)F)c1 [I-481] | 70 |
| COc1ccc(Cl)c(S(=O)(=O)NC(=O)c2ncn(-c3ccc(Cl)cc3Cl)c2C(F)F)c1 [I-482] | 90 |
| COc1ccc(Cl)c(S(=O)(=O)NC(=O)c2ncn(-c3ccc(Cl)cc3Cl)c2C(C)C)c1 [I-484] | 70 |
| COc1ccc(Cl)c(S(=O)(=O)NC(=O)c2ncn(-c3cccc(Cl)c3)c2C2CC2)c1 [I-485] | 90 |
| COc1ccc(Cl)c(S(=O)(=O)NC(=O)c2ncn(-c3ccc(Cl)cc3Cl)c2C2CC2)c1 [I-486] | 70 |
| COc1ccc(Cl)c(S(=O)(=O)NC(=O)c2ncn(-c3c(F)cccc3F)c2C(F)F)c1 [I-487] | 100 |
| COc1ccc(Cl)c(S(=O)(=O)NC(=O)c2ncn(-c3cccc(Cl)c3)c2C(C)C)c1 [I-488] | 90 |
| COc1ccc(Cl)c(S(=O)(=O)NC(=O)c2ncn(-c3ccccc3Cl)c2C2CC2)c1 [I-489] | 90 |
| COc1ccc(Cl)c(S(=O)(=O)NC(=O)c2ncn(-c3cc(F)ccc3F)c2C2CC2)c1 [I-490] | 90 |
| COc1ccc(Cl)c(S(=O)(=O)NC(=O)c2ncn(-c3cc(F)ccc3F)c2C(C)C)c1 [I-491] | 100 |

Each molecule was assayed on Myzus persicae (assay: Myzus persicae spray test (Chinese cabbage leaf discs)). Details: foliar, 144 h, 100 g/ha, after 6 days, read-out: efficacy.
Assay type: in vivo
Procedure: Myzus persicae—Spray Test [table] To produce a suitable active compound preparation, 1 part by weight of active compound is dissolved with the specified parts by weight of solvent and made up to the desired concentration with water containing an emulsifier concentration of 1000 ppm. To produce further test concentrations, the formulation is diluted with emulsifier-containing water. Discs of Chinese cabbage leaves (Brassica pekinensis) infested by all stages of the green peach aphid (Myzus persicae) are sprayed with an active compound preparation of the desired concentration. After 6 days, the efficacy in % is determined. 100% means that all the aphids have been killed; 0% means that no aphids have been killed.

| Compound | pest or weed control at 100 g/ha [%] |
| --- | --- |
| COc1ccc(S(=O)(=O)NC(=O)c2ncn(CCC(F)(F)F)c2Br)cc1 [I-010] | 90 |

Same assay, conditions: foliar, 144 h, 500 g/ha, after 6 days, read-out: efficacy

| Compound | pest or weed control at 500 g/ha [%] |
| --- | --- |
| Cc1nc(C(=O)NS(=O)(=O)C(C)C)cn1-c1ccccc1Cl [I-006] | 90 |
| COc1ccc(S(=O)(=O)NC(=O)c2ncn(CCC(F)(F)F)c2Br)cc1 [I-010] | 70 |
| CCCn1cnc(C(=O)NS(=O)(=O)c2ccc(Cl)cc2)c1Cl [I-042] | 70 |
| CC(C)S(=O)(=O)NC(=O)c1cn(C)c(Cc2cccc(Cl)c2)n1 [I-120] | 90 |
| O=C(NS(=O)(=O)c1ccc(Cl)cc1)c1cn(Cc2ccccc2Cl)cn1 [I-158] | 90 |
| O=C(NS(=O)(=O)c1ccccc1)c1cn(-c2ccccc2OC(F)(F)F)cn1 [I-214] | 70 |
| O=C(NS(=O)(=O)c1c(Cl)cccc1Cl)c1cn(-c2ccccc2F)cn1 [I-220] | 70 |
| COc1ccc(Cl)c(S(=O)(=O)NC(=O)c2cn(-c3cc(Cl)c(Br)c(Cl)c3)cn2)c1 [I-314] | 70 |
| O=C(NS(=O)(=O)c1cc(Cn2cccn2)ccc1Cl)c1cn(-c2cc(Cl)cc(C(F)(F)F)c2)cn1 [I-346] | 70 |
| Cc1nc(C(=O)NS(=O)(=O)c2c(F)cccc2NC(C)C)cn1-c1cc(F)cc(F)c1 [I-385] | 70 |
| COc1ccc(Cl)c(S(=O)(=O)NC(=O)c2cn(-c3cc(Cl)cc(C(F)(F)F)c3)c(C(C)C)n2)c1 [I-401] | 90 |

Reference: patent US10820591B2, “Substituted sulfonyl amides for controlling animal pests” (Bayer Aktiengesellschaft, priority 2016, dated 2020)
